The subject of one assay is TNF. Nature of the assay: PBMC assay, TNF release after LPS stimulation. Format: cell-based. The following applies: human PBMCs, 30 min preincubation, 100 ng/ml LPS for 6 hrs, supernatant, MSD technology. The protocol:
(§1) Peripheral venous blood was collected from healthy individuals and human peripheral blood mononuclear cells (PBMCs) were isolated from blood by Ficoll-Histopaque (Sigma-Aldrich, A0561) density gradient centrifugation. After isolation, PBMCs were stored in liquid nitrogen for later use. Upon thawing, PBMC cell viability was determined in growth medium (RPMI media supplemented with 10% fetal bovine serum, 1% Pen-Strep and 1% L-glutamine). Compounds were spotted in a 1:3 serial dilution in DMSO and diluted to the final concentration in 30 μl medium in 96 well plates (Falcon, 353072). PBMCs were added at a density of 7.5×10^4 cells per well and incubated for 30 min in a 5% CO2 incubator at 37 ° C. LPS stimulation was performed by addition of 100 ng/ml LPS (final concentration, Invivogen, tlrl-smlps) for 6 hrs followed by collection of cellular supernatant and the analysis of IL-1β[…] and TNF cytokines levels (uμ) via MSD technology according to manufacturers' guidelines (MSD, K151A0H).
(§2) IC50 and AC50 values (for IL-1β) and EC50 and AC50 values (TNF) were obtained on compounds of the invention/examples, and the AC50 values are depicted in the following table: […]

A further assay deals with IL-1β. Nature of the assay: PBMC assay, IL-1β release after LPS stimulation. Format: cell-based. The following applies: human PBMCs, 30 min preincubation, 100 ng/ml LPS for 6 hrs, supernatant, MSD technology, read-out: IL1β AC50. The protocol: The activity of a compound according to the present invention can be assessed by in vitro methods.
as §1, §2

For `CC(C)c1nn(CC(=O)Nc2ccc3nncn3c2)c(=O)cc1N1CCC[C@H]1CO` (single isomer, unassigned) [Compound 11], the AC50 is over 10 µM in the assay on TNF and over 15 µM in the assay on IL-1β.

As for `CC(C)c1nn(CC(=O)Nc2ccc3nncn3c2)c(=O)cc1Nc1ccccc1` [Compound 1, 2-(4-anilino-3-isopropyl-6-oxo-pyridazin-1-yl)-N-([1,2,4]triazolo[4,3-a]pyridin-6-yl)acetamide], the AC50 with TNF is over 10 µM; with IL-1β, over 15 µM.

Consider `CC(C)c1nn(CC(=O)Nc2ccc3nncn3c2)c(=O)cc1Nc1cnn(CC23CC(CO2)C3)c1` [Compound 2], for which the AC50 with TNF was over 10 µM; in the assay on IL-1β, over 15 µM.

`CC(C)c1nn(CC(=O)Nc2ccc3nncn3c2)c(=O)cc1Nc1cnn(CC23CC(CO2)C3)c1C(F)(F)F` [Compound 3]: the figures for the AC50 with TNF and in the assay with IL-1β were over 10 µM and over 15 µM, respectively.

On to `CC(C)c1nn(CC(=O)Nc2ccc3nncn3c2)c(=O)cc1NCC(F)(F)F` [Compound 4], for which the AC50 was over 10 µM in the assay on TNF and over 15 µM in the assay on IL-1β.

In the case of `CC(C)c1nn(CC(=O)Nc2ccc3nncn3c2)c(=O)cc1N1CCCC1` [Compound 5, 2-(3-isopropyl-6-oxo-4-pyrrolidin-1-yl-pyridazin-1-yl)-N-([1,2,4]triazolo[4,3-a]pyridin-6-yl)acetamide], the AC50 was over 10 µM in the assay with TNF and 0.33 µM in the assay with IL-1β.

Take `CC(C)c1nn(CC(=O)Nc2ccc3nncn3c2)c(=O)cc1N1CCOCC1` [Compound 6]: the AC50 with TNF was over 10 µM; with IL-1β, over 15 µM.

For `CC(C)c1nn(CC(=O)Nc2ccc3nncn3c2)c(=O)cc1NC1CCCC1` [Compound 7], the values for the AC50 with TNF and in the assay with IL-1β were over 10 µM and 4.36 µM, respectively.

On to `COC[C@@H]1CCCN1c1cc(=O)n(CC(=O)Nc2ccc3nncn3c2)nc1C(C)C` [Compound 8], for which the AC50 was over 10 µM in the assay on TNF and 5.81 µM in the assay with IL-1β.

For the compound `CC(C)c1nn(CC(=O)Nc2ccc3nncn3c2)c(=O)cc1N1CC[C@H](F)C1` [Compound 9], the AC50 with TNF was over 10 µM; in the assay with IL-1β, 2.49 µM.

For the compound `CC(C)c1nn(CC(=O)Nc2ccc3nncn3c2)c(=O)cc1N1CC[C@@H](F)C1` [Compound 10], the AC50 with TNF is over 10 µM; with IL-1β, 0.53 µM.

In the case of `CC(C)c1nn(CC(=O)Nc2ccc3nncn3c2)c(=O)cc1N1CCC(F)(F)CC1` [Compound 12], the AC50 in the assay with TNF is over 10 µM; in the assay on IL-1β, over 15 µM.

Consider `CC(C)c1nn(CC(=O)Nc2ccc3nncn3c2)c(=O)cc1N1CCC(F)(F)C1` [Compound 13], for which the AC50 in the assay with TNF is over 10 µM; with IL-1β it was 0.66 µM.

In the case of `CC(C)c1nn(CC(=O)Nc2ccc3nncn3c2)c(=O)cc1N1CC2CC2C1` (stereo not drawn) [Compound 14], the figures for the AC50 in the assay with TNF and in the assay with IL-1β were over 10 µM and 0.09 µM, respectively.

Consider `COC[C@H]1CCCN1c1cc(=O)n(CC(=O)Nc2ccc3nncn3c2)nc1C(C)C` [Compound 15], for which the AC50 was over 10 µM in the assay with TNF and 16.6 µM in the assay on IL-1β.

For `CO[C@H]1CCN(c2cc(=O)n(CC(=O)Nc3ccc4nncn4c3)nc2C(C)C)C1` [Compound 16], the AC50 was over 10 µM with TNF and 11.4 µM in the assay on IL-1β.

`CO[C@@H]1CCN(c2cc(=O)n(CC(=O)Nc3ccc4nncn4c3)nc2C(C)C)C1` [Compound 17]: the AC50 in the assay on TNF was over 10 µM; in the assay with IL-1β, 2.9 µM.

`CC(C)c1nn(CC(=O)Nc2ccc3nncn3c2)c(=O)cc1N1CCC[C@@H]1C` [Compound 18]: the AC50 with TNF was over 10 µM; in the assay on IL-1β it was over 15 µM.

Turning to `CCC1CCCN1c1cc(=O)n(CC(=O)Nc2ccc3nncn3c2)nc1C(C)C` (stereo not drawn) [Compound 19], the half-maximal activity concentration (AC50) in the assay with TNF is over 10 µM; in the assay on IL-1β, 2.61 µM.

In the case of `CC(C)c1nn(CC(=O)Nc2ccc3nncn3c2)c(=O)cc1N1CCCC1C(C)C` (stereo not drawn) [Compound 20], the AC50 in the assay with TNF was over 10 µM; with IL-1β, 10.8 µM.

Consider `CC(C)c1nn(CC(=O)Nc2ccc3nncn3c2)c(=O)cc1N1C2CCC1CC2` [Compound 21], for which the AC50 with TNF is over 10 µM; with IL-1β, 1.02 µM.

Turning to `CC1CN(c2cc(=O)n(CC(=O)Nc3ccc4nncn4c3)nc2C(C)C)C1` [Compound 23], the AC50 is over 10 µM in the assay with TNF and 0.71 µM with IL-1β.

Regarding `COC1CN(c2cc(=O)n(CC(=O)Nc3ccc4nncn4c3)nc2C(C)C)C1` [Compound 24], the AC50 with TNF was over 10 µM; with IL-1β it was 9.87 µM.

In the case of `CC(C)c1nn(CC(=O)Nc2ccc3nncn3c2)c(=O)cc1N1CCC12CCOCC2` [Compound 25], the AC50 in the assay on TNF was over 10 µM; in the assay with IL-1β it was over 15 µM.

With `CC(C)c1nn(CC(=O)Nc2ccc3nncn3c2)c(=O)cc1N1CC(C)(O)C1` [Compound 26], the AC50 with TNF was over 10 µM; in the assay with IL-1β, over 15 µM.

Regarding `CC(C)c1nn(CC(=O)Nc2ccc3nncn3c2)c(=O)cc1N1CC[C@@H](N(C)C)C1` [Compound 27], the values for the AC50 in the assay with TNF and with IL-1β were over 10 µM and over 15 µM, respectively.

For `CC(C)c1nn(CC(=O)Nc2ccc3nncn3c2)c(=O)cc1N1CC[C@H](N(C)C)C1` [Compound 28], the AC50 in the assay with TNF was over 10 µM; in the assay on IL-1β, over 15 µM.

Regarding `CC(C)c1nn(CC(=O)Nc2ccc3nncn3c2)c(=O)cc1NCC1CC1` [Compound 29, 2-[4-(cyclopropylmethylamino)-3-isopropyl-6-oxo-pyridazin-1-yl]-N-([1,2,4]triazolo[4,3-a]pyridin-6-yl)acetamide], the AC50 with TNF was over 10 µM; in the assay with IL-1β, 1.53 µM.

As to `CC(C)c1nn(CC(=O)Nc2ccc3nncn3c2)c(=O)cc1N(C)C` [Compound 30, 2-[4-(dimethylamino)-3-isopropyl-6-oxo-pyridazin-1-yl]-N-([1,2,4]triazolo[4,3-a]pyridin-6-yl)acetamide], the AC50 was over 10 µM with TNF and over 15 µM in the assay with IL-1β.

With `CC(C)c1nn(CC(=O)Nc2ccc3nncn3c2)c(=O)cc1NC1CC(C)(C)C1` [Compound 31, N-([1,2,4]triazolo[4,3-a]pyridin-6-yl)-2-(4-((3,3-dimethylcyclobutyl)amino)-3-isopropyl-6-oxopyridazin-1(6H)-yl)acetamide], the AC50 with TNF and in the assay on IL-1β was over 20 µM in each case.

As to `CC(C)c1nn(CC(=O)Nc2ccc3nncn3c2)c(=O)cc1N1CC(C)(F)C1` [Compound 32], the AC50 was over 20 µM in the assay on TNF and 1.37 µM in the assay on IL-1β.

For `CC(C)c1nn(CC(=O)Nc2ccc3nncn3c2)c(=O)cc1N1CC[C@@H]2C[C@@H]2C1` [Compound 33], the values for the AC50 in the assay with TNF and in the assay with IL-1β were over 20 µM and 0.5 µM, respectively.

Consider `CC(C)c1nn(CC(=O)Nc2ccc3nncn3c2)c(=O)cc1N1Cc2cc(F)cnc2C1` [Compound 34], for which the AC50 in the assay on TNF and in the assay with IL-1β was over 20 µM throughout.

Turning to `CC(C)c1nn(CC(=O)Nc2ccc3nncn3c2)c(=O)cc1N1CC(CC(F)F)C1` [Compound 35], the AC50 in the assay with TNF is over 20 µM; with IL-1β it was 4.36 µM.

For `CC(C)c1nn(CC(=O)Nc2ccc3nncn3c2)c(=O)cc1N1CCC(C)(O)CC1` [Compound 36], the AC50 with TNF and in the assay on IL-1β was over 20 µM in each case.

`CC(C)c1nn(CC(=O)Nc2ccc3nncn3c2)c(=O)cc1NCC(F)c1ccccc1` (stereo not drawn) [Compound 37]: the AC50 in the assay with TNF and with IL-1β was over 20 µM throughout.

The record behind these values is patent US20240174670A1, “4-AMINO-6-OXO-PYRIDAZINE DERIVATIVES MODULATING NLRP3” (JANSSEN PHARMACEUTICA NV, priority 2021, published 2024).
